# Assay results: the kinase profiling compilation of Christmann-Franck et al. (2016)
# What was measured:
# Assay in all cases: radiometric filter-binding kinase assay
# [1] = test system: AKT1 (human), P31749 [S473D]
# AURKA (human) = AURKA (human) (UniProt O14965)
# BRSK1 (human) = BRSK1 (human) (UniProt Q8TDC3)
# BRSK2 (human) = BRSK2 (human) (UniProt Q8IWQ3)
# BTK (human) = BTK (human) (UniProt Q06187)
# CaMK1 (human) = CaMK1 (human) (UniProt Q14012)
# DYRK2 (human) = DYRK2 (human) (UniProt Q92630)
# DYRK3 (human) = DYRK3 (human) (UniProt O43781)
# EPHA2 (human) = EPHA2 (human) (UniProt P29317); conditions: compound 10.0 µM
# EPHB1 (human) = EPHB1 (human) (UniProt P54762)
# EPHB2 (human) = EPHB2 (human) (UniProt P29323)
# EPHB4 (human) = EPHB4 (human) (UniProt P54760)
# FLT1 (human) = FLT1 (human) (UniProt P17948)
# Chain of FLT1 (human) (P17948 whole entry, looked up): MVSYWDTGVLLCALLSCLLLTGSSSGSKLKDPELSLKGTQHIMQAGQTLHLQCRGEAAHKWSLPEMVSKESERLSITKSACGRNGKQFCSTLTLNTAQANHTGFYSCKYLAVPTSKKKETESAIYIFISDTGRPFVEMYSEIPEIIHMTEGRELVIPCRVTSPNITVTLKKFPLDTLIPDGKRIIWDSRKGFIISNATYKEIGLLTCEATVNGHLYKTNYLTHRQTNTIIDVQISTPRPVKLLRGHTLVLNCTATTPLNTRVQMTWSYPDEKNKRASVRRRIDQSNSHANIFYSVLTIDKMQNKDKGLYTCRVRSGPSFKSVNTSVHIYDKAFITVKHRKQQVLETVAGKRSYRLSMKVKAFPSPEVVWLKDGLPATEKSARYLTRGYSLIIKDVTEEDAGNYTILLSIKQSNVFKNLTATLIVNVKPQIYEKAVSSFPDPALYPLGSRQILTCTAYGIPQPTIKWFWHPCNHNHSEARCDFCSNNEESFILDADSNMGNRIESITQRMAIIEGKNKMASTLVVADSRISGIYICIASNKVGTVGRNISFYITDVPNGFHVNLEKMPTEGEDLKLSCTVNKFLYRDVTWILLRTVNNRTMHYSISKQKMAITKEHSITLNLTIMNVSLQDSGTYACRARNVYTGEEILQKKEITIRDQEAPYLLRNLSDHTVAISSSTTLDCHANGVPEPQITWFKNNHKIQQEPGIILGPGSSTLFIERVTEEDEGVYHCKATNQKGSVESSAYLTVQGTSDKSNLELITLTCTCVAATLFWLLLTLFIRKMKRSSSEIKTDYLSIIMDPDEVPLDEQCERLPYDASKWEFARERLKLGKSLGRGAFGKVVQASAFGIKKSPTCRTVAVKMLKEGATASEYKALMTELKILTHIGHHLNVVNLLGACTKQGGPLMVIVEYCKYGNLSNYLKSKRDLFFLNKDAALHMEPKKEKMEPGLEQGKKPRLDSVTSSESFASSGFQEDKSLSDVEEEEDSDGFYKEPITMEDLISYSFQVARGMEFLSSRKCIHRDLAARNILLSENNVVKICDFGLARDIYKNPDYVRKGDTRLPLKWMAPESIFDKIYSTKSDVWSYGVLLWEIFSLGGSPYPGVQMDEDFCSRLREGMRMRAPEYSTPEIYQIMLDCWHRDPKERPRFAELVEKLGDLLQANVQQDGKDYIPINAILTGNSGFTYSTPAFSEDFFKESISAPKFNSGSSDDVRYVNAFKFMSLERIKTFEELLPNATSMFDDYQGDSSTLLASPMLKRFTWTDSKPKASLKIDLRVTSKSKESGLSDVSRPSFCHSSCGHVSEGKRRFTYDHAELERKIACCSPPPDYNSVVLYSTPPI
# GCK (human) = GCK (human) (UniProt Q12851)
# HIPK1 (human) = HIPK1 (human) (UniProt Q86Z02)
# HIPK2 (human) = HIPK2 (human) (UniProt Q9H2X6)
# INSR (human) = INSR (human) (UniProt P06213); conditions: compound 10.0 µM
# JAK2 JH1 JH2 (human) = JAK2 JH1 JH2 (human) (UniProt O60674)
# MAP2K1 (human) = MAP2K1 (human) (UniProt Q02750)
# MAP3K1 (human) = MAP3K1 (human) (UniProt Q13233)
# MAP3K11 (human) = MAP3K11 (human) (UniProt Q16584)
# MAP3K5 (human) = MAP3K5 (human) (UniProt Q99683)
# Chain of MAP3K5 (human) (Q99683 whole entry, looked up): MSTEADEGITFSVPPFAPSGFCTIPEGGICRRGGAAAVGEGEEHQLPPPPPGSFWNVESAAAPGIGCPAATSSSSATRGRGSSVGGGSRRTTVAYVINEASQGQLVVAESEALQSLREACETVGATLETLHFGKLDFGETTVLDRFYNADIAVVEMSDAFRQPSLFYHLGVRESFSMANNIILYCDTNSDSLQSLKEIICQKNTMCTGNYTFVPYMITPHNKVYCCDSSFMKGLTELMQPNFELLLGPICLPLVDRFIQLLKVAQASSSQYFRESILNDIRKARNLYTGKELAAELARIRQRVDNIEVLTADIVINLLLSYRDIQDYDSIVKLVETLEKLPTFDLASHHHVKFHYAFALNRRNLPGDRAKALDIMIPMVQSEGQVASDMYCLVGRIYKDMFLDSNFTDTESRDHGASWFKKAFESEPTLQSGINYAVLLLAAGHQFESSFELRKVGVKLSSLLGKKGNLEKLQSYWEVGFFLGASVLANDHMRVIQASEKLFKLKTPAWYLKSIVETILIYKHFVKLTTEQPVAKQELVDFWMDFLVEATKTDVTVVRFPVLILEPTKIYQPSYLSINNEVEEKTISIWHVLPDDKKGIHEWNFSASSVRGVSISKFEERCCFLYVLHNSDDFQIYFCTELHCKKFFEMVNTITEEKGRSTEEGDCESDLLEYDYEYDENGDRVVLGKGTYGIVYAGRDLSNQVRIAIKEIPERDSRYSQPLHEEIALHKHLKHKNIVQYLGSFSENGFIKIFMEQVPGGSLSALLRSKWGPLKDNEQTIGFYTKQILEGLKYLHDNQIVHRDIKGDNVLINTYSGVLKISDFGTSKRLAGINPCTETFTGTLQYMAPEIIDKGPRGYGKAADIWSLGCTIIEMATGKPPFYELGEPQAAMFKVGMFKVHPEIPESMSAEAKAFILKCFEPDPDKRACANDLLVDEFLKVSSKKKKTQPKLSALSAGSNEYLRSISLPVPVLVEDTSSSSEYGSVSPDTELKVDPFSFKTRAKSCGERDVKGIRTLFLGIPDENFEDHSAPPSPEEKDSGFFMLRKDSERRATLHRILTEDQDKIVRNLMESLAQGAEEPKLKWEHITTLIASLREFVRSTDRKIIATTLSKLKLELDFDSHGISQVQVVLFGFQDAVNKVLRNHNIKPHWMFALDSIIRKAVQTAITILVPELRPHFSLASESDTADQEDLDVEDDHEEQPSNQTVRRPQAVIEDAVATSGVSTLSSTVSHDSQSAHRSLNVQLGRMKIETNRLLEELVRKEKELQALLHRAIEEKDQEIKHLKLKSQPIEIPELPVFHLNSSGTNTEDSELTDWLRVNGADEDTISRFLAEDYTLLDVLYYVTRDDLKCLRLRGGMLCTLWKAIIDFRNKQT
# MAPK10 (human) = MAPK10 (human) (UniProt P53779)
# Chain of MAPK10 (human) (P53779 whole entry, looked up): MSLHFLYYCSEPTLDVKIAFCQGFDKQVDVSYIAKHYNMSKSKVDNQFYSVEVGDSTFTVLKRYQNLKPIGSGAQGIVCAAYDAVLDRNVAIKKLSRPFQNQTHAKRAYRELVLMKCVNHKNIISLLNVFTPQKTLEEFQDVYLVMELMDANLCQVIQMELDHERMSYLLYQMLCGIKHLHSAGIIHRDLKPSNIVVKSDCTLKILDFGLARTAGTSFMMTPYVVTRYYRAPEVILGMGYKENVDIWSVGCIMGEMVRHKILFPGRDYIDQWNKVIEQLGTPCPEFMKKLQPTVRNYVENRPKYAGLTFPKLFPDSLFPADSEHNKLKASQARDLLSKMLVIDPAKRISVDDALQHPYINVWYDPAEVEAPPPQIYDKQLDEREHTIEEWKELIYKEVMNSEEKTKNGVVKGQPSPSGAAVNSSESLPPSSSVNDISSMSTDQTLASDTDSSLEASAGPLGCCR
# MAPK11 (human) = MAPK11 (human) (UniProt Q15759)
# MAPK8 (human) = MAPK8 (human) (UniProt P45983)
# Chain of MAPK8 (human) (P45983 whole entry, looked up): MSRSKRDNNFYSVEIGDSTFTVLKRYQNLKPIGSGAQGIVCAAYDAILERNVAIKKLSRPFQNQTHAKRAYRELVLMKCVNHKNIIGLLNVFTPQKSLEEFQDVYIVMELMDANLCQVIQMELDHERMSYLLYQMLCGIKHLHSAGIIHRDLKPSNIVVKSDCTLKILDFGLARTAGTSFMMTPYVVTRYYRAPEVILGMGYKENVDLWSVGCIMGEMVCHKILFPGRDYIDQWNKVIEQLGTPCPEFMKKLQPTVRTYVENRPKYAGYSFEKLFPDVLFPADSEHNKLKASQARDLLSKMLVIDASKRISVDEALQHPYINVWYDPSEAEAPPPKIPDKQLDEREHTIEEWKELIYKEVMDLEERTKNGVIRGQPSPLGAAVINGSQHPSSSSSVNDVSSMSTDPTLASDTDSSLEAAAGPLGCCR
# MAPK9 (human) = MAPK9 (human) (UniProt P45984)
# MAPKAPK5 (human) = MAPKAPK5 (human) (UniProt Q8IW41)
# MARK3 (human) = MARK3 (human) (UniProt P27448)
# PIM1 (human) = PIM1 (human) (UniProt P11309)
# PRKCA (human) = PRKCA (human) (UniProt P17252)
# [2] = test system: RPS6KB1 (human), P23443 [T412E]
# STK3 (human) = STK3 (human) (UniProt Q13188)
# SYK (human) = SYK (human) (UniProt P43405); conditions: compound 10.0 µM
# TAOK1 (human) = TAOK1 (human) (UniProt Q7L7X3)
# Chain of TAOK1 (human) (Q7L7X3 whole entry, looked up): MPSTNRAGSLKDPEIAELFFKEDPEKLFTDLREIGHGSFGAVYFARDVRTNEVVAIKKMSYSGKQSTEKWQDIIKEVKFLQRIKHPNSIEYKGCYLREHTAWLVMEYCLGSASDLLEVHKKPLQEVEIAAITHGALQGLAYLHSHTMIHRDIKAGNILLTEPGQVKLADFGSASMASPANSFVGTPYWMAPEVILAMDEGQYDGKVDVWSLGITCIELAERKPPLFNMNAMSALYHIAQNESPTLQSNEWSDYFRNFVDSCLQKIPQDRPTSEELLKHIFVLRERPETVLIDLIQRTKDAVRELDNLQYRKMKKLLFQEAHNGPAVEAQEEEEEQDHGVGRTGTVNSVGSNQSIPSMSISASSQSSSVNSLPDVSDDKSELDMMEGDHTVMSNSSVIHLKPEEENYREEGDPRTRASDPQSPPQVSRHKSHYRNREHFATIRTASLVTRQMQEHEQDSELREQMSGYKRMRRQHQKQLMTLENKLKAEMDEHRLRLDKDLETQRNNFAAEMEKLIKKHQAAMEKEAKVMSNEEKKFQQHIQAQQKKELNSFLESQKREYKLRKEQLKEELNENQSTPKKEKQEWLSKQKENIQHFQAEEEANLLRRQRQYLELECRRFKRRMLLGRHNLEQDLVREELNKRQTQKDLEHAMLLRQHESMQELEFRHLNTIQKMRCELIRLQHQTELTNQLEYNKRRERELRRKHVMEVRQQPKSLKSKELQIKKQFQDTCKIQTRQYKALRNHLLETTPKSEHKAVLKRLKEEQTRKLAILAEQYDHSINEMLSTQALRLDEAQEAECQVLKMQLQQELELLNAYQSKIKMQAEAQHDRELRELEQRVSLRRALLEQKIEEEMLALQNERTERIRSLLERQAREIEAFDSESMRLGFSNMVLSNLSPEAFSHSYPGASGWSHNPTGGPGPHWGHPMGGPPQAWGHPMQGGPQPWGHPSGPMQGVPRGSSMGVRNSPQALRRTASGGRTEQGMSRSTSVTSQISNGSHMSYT
# TBK1 (human) = TBK1 (human) (UniProt Q9UHD2)
# YES1 (human) = YES1 (human) (UniProt P07947)
# Chain of AURKA (human) (O14965 whole entry, looked up): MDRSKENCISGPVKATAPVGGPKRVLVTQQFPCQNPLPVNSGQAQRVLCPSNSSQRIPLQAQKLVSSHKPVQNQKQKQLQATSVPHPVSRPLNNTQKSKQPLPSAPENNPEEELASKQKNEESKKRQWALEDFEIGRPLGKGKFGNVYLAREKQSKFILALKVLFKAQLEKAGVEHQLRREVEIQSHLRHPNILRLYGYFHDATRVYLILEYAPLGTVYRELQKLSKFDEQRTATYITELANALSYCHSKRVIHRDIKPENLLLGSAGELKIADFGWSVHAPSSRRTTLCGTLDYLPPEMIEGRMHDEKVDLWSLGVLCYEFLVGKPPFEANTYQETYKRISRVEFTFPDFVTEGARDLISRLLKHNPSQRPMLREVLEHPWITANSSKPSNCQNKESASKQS
smiles,measurement,setting,value
Nc1cccc2c1CN(C1CCC(=O)NC1=O)C2=O (centres undefined),residual activity,[1]; compound 1.0 µM,88%
same,residual activity,[1]; compound 10.0 µM,91%
same,residual activity,AURKA (human); compound 1.0 µM,113%
same,residual activity,AURKA (human); compound 10.0 µM,100%
same,residual activity,BRSK1 (human); compound 1.0 µM,84%
same,residual activity,BRSK1 (human); compound 10.0 µM,94%
same,residual activity,BRSK2 (human); compound 1.0 µM,98%
same,residual activity,BRSK2 (human); compound 10.0 µM,105%
same,residual activity,BTK (human); compound 1.0 µM,104%
same,residual activity,BTK (human); compound 10.0 µM,107%
same,residual activity,CaMK1 (human); compound 1.0 µM,103%
same,residual activity,CaMK1 (human); compound 10.0 µM,91%
same,residual activity,DYRK2 (human); compound 1.0 µM,101%
same,residual activity,DYRK2 (human); compound 10.0 µM,103%
same,residual activity,DYRK3 (human); compound 1.0 µM,104%
same,residual activity,DYRK3 (human); compound 10.0 µM,99%
same,residual activity,EPHA2 (human),96%
same,residual activity,EPHB1 (human); compound 1.0 µM,115%
same,residual activity,EPHB1 (human); compound 10.0 µM,126%
same,residual activity,EPHB2 (human); compound 1.0 µM,107%
same,residual activity,EPHB2 (human); compound 10.0 µM,113%
same,residual activity,EPHB4 (human); compound 1.0 µM,91%
same,residual activity,EPHB4 (human); compound 10.0 µM,99%
same,residual activity,FLT1 (human); compound 1.0 µM,100%
same,residual activity,FLT1 (human); compound 10.0 µM,110%
same,residual activity,GCK (human); compound 1.0 µM,103%
same,residual activity,GCK (human); compound 10.0 µM,114%
same,residual activity,HIPK1 (human); compound 1.0 µM,92%
same,residual activity,HIPK1 (human); compound 10.0 µM,101%
same,residual activity,HIPK2 (human); compound 1.0 µM,107%
same,residual activity,HIPK2 (human); compound 10.0 µM,103%
same,residual activity,INSR (human),107%
same,residual activity,JAK2 JH1 JH2 (human); compound 1.0 µM,103%
same,residual activity,JAK2 JH1 JH2 (human); compound 10.0 µM,93%
same,residual activity,MAP2K1 (human); compound 1.0 µM,90%
same,residual activity,MAP2K1 (human); compound 10.0 µM,92%
same,residual activity,MAP3K1 (human); compound 1.0 µM,101%
same,residual activity,MAP3K1 (human); compound 10.0 µM,97%
same,residual activity,MAP3K11 (human); compound 1.0 µM,92%
same,residual activity,MAP3K11 (human); compound 10.0 µM,98%
same,residual activity,MAP3K5 (human); compound 1.0 µM,102%
same,residual activity,MAP3K5 (human); compound 10.0 µM,101%
same,residual activity,MAPK10 (human); compound 1.0 µM,90%
same,residual activity,MAPK10 (human); compound 10.0 µM,95%
same,residual activity,MAPK11 (human); compound 1.0 µM,96%
same,residual activity,MAPK11 (human); compound 10.0 µM,106%
same,residual activity,MAPK8 (human); compound 1.0 µM,99%
same,residual activity,MAPK8 (human); compound 10.0 µM,106%
same,residual activity,MAPK9 (human); compound 1.0 µM,100%
same,residual activity,MAPK9 (human); compound 10.0 µM,102%
same,residual activity,MAPKAPK5 (human); compound 1.0 µM,86%
same,residual activity,MAPKAPK5 (human); compound 10.0 µM,87%
same,residual activity,MARK3 (human); compound 1.0 µM,91%
same,residual activity,MARK3 (human); compound 10.0 µM,94%
same,residual activity,PIM1 (human); compound 1.0 µM,93%
same,residual activity,PIM1 (human); compound 10.0 µM,87%
same,residual activity,PRKCA (human); compound 1.0 µM,107%
same,residual activity,PRKCA (human); compound 10.0 µM,100%
same,residual activity,[2]; compound 1.0 µM,94%
same,residual activity,[2]; compound 10.0 µM,93%
same,residual activity,STK3 (human); compound 1.0 µM,102%
same,residual activity,STK3 (human); compound 10.0 µM,101%
same,residual activity,SYK (human),114%
same,residual activity,TAOK1 (human); compound 1.0 µM,106%
same,residual activity,TAOK1 (human); compound 10.0 µM,96%
same,residual activity,TBK1 (human); compound 1.0 µM,95%
same,residual activity,TBK1 (human); compound 10.0 µM,102%
same,residual activity,YES1 (human); compound 1.0 µM,102%
same,residual activity,YES1 (human); compound 10.0 µM,102%
